Reference: US3937838A, “Orally active bronchospasmolytic compounds and their preparation” (priority 1966, dated 1976)
Where two headings read alike, the source gives them in different places.

Experiments:
[1] = test system: histamine induced bronchoconstriction; assay: Bronchospasmolytic effect in vivo, Konzett and Rossler (Example 5b); set-up: species or system guinea pig; settings: measured as described above
Procedure: Orciprenaline and terbutaline were also tested in vivo according to the method described by Konzett and Rossler [Arch. Exp. Path. Pharmak. 195 (1940) page 71]. In the method of Konzett and Rossler, the animal is ventilated with a constant volume of air. When a certain pressure has been reached in the lung, the volume of air which is in excess of the pulmonary capacity will escape through the valve. This surplus of air is recorded. The testing compounds in the Konzett and Rossler method, bronchial contraction is provoked by administration of histamine. The histamine reduced the capacity of the airways, and the measured overflow increases. In order to see to what extent a test compound counteracts the histamine-induced bronchospasm, the animal is first given an injection of the test compound which is followed 3 minutes later by exposure to histamine.

[2] = Acute toxicity in mice (Example 9); settings: mouse, in vivo, iv, mice
[3] = test system: isolated guinea pig auricle; assay: Dual bath preparation, effect on left auricle (Example 8a); settings: same bath
Procedure: The left auricle was dissected out and mounted together with spirally-cut trachea from the same animal in a 100 ml bath in Kreb's solution (37°C.) well aereated with a mixture of oxygen (95%) and carbon dioxide (5%). The auricle was electrically stimulated with square wave pulses from a Techtronic Stimulator (voltage 2-4; duration: 10 m sec; frequency 1 per second). This is, in general, the same procedure described above in Example 5c.
Using the dual bath preparation, tests were made of the effect on the trachea and auricle of KWD2025 (of the present invention) and of the known drugs KWD2109 and epinephrine. The drug to be tested was added to the bath in the predetermined amount and allowed to act upon the organs for 10 minutes.

isolated rabbit heart = assay: Effect on isolated heart, Langendorff preparation (Example 5d); settings: same procedure
Procedure: The effect of the compound of the present invention was also studied on isolated rabbit heart (Langendorff preparation) the method used as described by Anden et al. (Acta Pharmacol. et Toxicol., 21 (1964) page 247). In this procedure, the isolated heart is mounted in a Krebs solution and the test compound is injected into it. Measurements are continuously recorded of the rate and force of contraction.
The tests using epinephrine establish a standard of comparison to evaluate subsequent test compounds in the same preparation.

[4] = test system: bronchospasm induced by histamine aerosol; assay: Protecting effect against histamine aerosol in intact guinea pigs (Example 7c); type: in vivo, guinea pig; settings: Cavia porcellus, m ± s.e., read-out: ED50 (protecting 50 per cent of the animals for more than 4 minutes)
Procedure: The compounds KWD2109 and KWD2025 have been compared in preventing bronchospasm induced by histamine aerosol in guinea pigs.
The drug was injected intraperitoneally 15 minutes (Table 2) or administered orally 30 minutes (Table 3) before histamine treatment. The dose of the drugs protecting 50 per cent of the animals for more than 4 minutes is denoted "ED50". In untreated animals only 1-2 percent will withstand the histamine aerosol for more than 4 minutes.
To study the duration of the effect, 2 mg/kg was administered orally to intact guinea pigs at different time intervals before the histamine treatment. Two series each including eleven groups of six animals was studied. The groups were tested in histamine aerosol 10, 20, 30, 40, 50, 60, 120, 180, 240, 300 and 360 minutes after the administration of the compound. The per cent of animals in each group protected more than 4 minutes and more than 10 minutes was determined.

[5] = test system: isolated guinea pig heart; assay: Effect on isolated guinea pig heart, Langendorff (Example 7d); settings: KWD2025 given index 1.0
Procedure: The isolated guinea pig heart was perfused according to Langendorff. The method used is described by Anden et al. (Acta. Pharmacol. et Toxicol. 21, 247, 1964). Contractions in the heart were recorded by means of a force displacement transducer and aa Grass polygraph Model 7. Epinephrine was used as reference. KWD2109 and KWD2025 were tested on the same preparation. The comparisons of effects were based on dose for 50 percent increase in chronotropic effect and 10 percent increase in inotropic effect.

[6] = test system: isolated guinea pig heart; assay: Effect on isolated heart from guinea pig, Langendorff (Example 16); settings: for direct heart effect relative to terbutaline: per se
Procedure: The isolated guinea pig heart was perfused according to Langendorff. The method used is described by Anden et al. [Acta Pharmacol. et Toxicol. 21, 247, (1964)]. Contractions in the heart were recorded by a force displacement transducer and a Grass polygraph model 5. The recovery of the heart was tested with (-) epinephrine between every dose of the substance tested. Terbutaline was used as reference.

guinea pig trachea = assay: Bronchospasmolytic effect in vitro (Example 13); settings: for bronchospasmolytic effect x (-)epinephrine: based on ED50-values, weight basis, Table 7; for bronchospasmolytic effect in vitro relative to terbutaline: per se
Procedure: The trachea from a guinea pig was dissected out and spirally cut. It was mounted in a water-jacketed bath (37°C.) in Krebs solution and aerated with oxygen (95%) and carbon dioxide (5%). Pilocarpine (2 μg/ml) was added. The load was adjusted to about 2 g and relaxations in the trachea were recorded by means of a Grass force displacement transducer and a Grass polygraph model 5 (see Example 5 above). The cumulative method was used (-)-Epinephrine was used as reference. The comparisons presented in Table 7 are based on ED50 -values.

[7] = test system: histamine-induced bronchospasm; assay: Bronchospasmolytic effect in the anesthetized cat, Konzett & Rossler (Example 14); type: in vivo; settings: i.v.; based on ED50-values; weight basis; Table 8
Procedure: Bronchospasmolytic effect was studied according to the method of Konzett & Rossler (see Example 5b above). Bronchospasm was induced by i.v. injections of histamine into the left jugular vein. Overflow was recorded by means of a Grass volume transducer and a Grass polygraph model 5. Changes in arterial mean pressure and heart rate, were continuously recorded during the experiment. Terbutaline was used as reference in all experiments. The comparisons are based on ED50 -values.

[8] = test system: bronchoconstriction by histamine aerosol; assay: Protecting effect against histamine aerosol in guinea pigs (Example 15); type: in vivo, guinea pig; settings: for ED50: Cavia porcellus, read-out: ED50 (protecting 50 percent of the animals for more than 4 minutes)
Text: Male guinea pigs (200--300 g) were used. Bronchoconstriction was produced by letting the animals inhale a histamine aerosol.

mice = assay: Toxicity study in mice (Example 18); type: in vivo; settings: indicated by higher oral toxicity
Procedure: (§1) The toxicity was studied in mice (NMRI, male, 18-28 g) 24 hours after i.v. and oral administration. The animals were observed during five days. No further deaths occurred.

[9] = Toxicity study in mice (Example 18); type: in vivo; settings: mouse, in vivo, mice (NMRI, male), 24 hours, read-out: LD 50 + Standard error
Procedure: as §1

[10] = test system: arterial mean pressure, pulse pressure, heart rate, peripheral vascular resistance; assay: Haemodynamic studies in anesthetized cats (Example 17); type: in vivo, cat
Procedure: The haemodynamic effects of KWD2058 and terbutaline were studied in anesthetized cats after i.v. injection in the left femoral vein. Three experiments were done. The effects on arterial mean pressure, pulse pressure (right carotid artery) and heart rate were recorded.
To study the effect of the compounds on the peripheral vascular resistance, constant flow was arranged in the right hind limb on two cats by means of a Sigma motor pump connected to arteria femoralis. Injections were made intra-arterially and variations in the peripheral resistance were recorded as pressure changes.

[11] = test system: right auricle from the guinea pig; assay: Dual preparation test in vitro, effect on auricle (Example 5c); settings: slow infusion; 0.375 μg/min where stated; FIGS. 2-4
Text: (§2) [This procedure is more fully described below in Example 5 (b)].
(§3) FIG. 2 illustrates the effect of epinephrine (EPE) and terbutaline on spirally cut trachea and right auricle from the guinea pig. Both preparations are dissected out from the same animal and run under identical experimental conditions;
(§4) Both preparations are dissected out from the same animal, and run under identical experimental conditions;
(§5) Both preparations are dissected out from the same animal and run under identical experimental conditions;
(§6) The relation between the heart stimulatory effect and bronchodilator effect was studied in vitro on auricle-trachea-preparation from the guinea pig in order to compare the effect on the heart and the effect on the bronchial muscle under identical experimental conditions. Both spontaneously bearing auricle and spirally-cut trachea were placed in the same bath in Krebs solution. Both preparations were taken from the same animal.
(§7) The compound to be tested was slowly infused into the bathing solution and the tension was measured for each of the auricle and trachael preparations.
(§8) In carrying out this dual preparation test, epinephrine was used as a reference. […] Infusion of epinephrine was made over a period of ten minutes. After washing and recovery, the test solution was infused in the same manner and the effect of the test compound was compared with the effect of epinephrine.
Referring more specifically to FIG. 2, the upper portion of each chart thereof represents the tension continuously recorded of the auricle preparation (shaded area 1 for the effect of epinephrine on the auricle, ref. no. 2 for the effect of terbutaline infused at a rate of 0.2 μg/min on the auricle, and ref. no. 3 for the effect of terbutaline infused at a rate of 0.375μg/min on the auricle).

[12] = test system: spirally cut trachea from the guinea pig; assay: Dual preparation test in vitro, effect on trachea (Example 5c); settings: slow infusion; 0.375 μg/min where stated; FIGS. 2-4
Text: as §2, §3, §4, §5, §6, §7, §8

SMILES	effect on heart rate x terbutaline ([6]; Table 10)	direct heart effect relative to terbutaline [6]	bronchospasmolytic effect x (-)epinephrine (guinea pig trachea)	bronchospasmolytic effect in vitro relative to terbutaline (guinea pig trachea)	bronchospasmolytic effect x terbutaline [7]	ED50 ([8]; ip, 0.25 h) [mg/kg]	ED50 ([8]; po, 0.5 h) [mg/kg]	oral absorption in comparison with terbutaline (mice)	LD50 at 24 h ([9]; iv) [mg/kg]	LD50 at 24 h ([9]; po) [mg/kg]	further results
Oc1cc(O)cc(C(O)CNC2CCC2)c1 (stereo not drawn) [KWD2025, 1-(3',5'-dihydroxyphenyl)-2-(cyclobutylamino)-ethanol]											bronchospasmolytic effect relative to epinephrine [1]: about 0.4 times; bronchospasmolytic effect relative to orciprenaline [1]: about 1.2 times; LD50 [2]: 54 mg/kg; effect on force of contraction in auricle in concentrations relaxing the trachea [3]: relaxed the trachea without affecting the auricle; cardiac stimulatory effect relative to epinephrine (isolated rabbit heart): less than 0.1 times; ED50 ([4]; ip, 0.25 h, i.p., 15 minutes before histamine-aerosol): 0.6 ± 0.07 mg/kg; ED50 ([4]; po, 0.5 h, peroral, 30 minutes before histamine-aerosol): 1.7 ± 0.3 mg/kg; therapeutic index, bronchospasmolytic effect over effect on the heart (inotropic) [5]: 1.0
CC(=O)Oc1cc(OC(C)=O)cc(C(O)CNC(C)(C)C)c1 (stereo not drawn) [KWD2037]	0.05 ± 0.01	much less direct heart effect	0.7	weaker bronchospasmolytic effect in vitro than terbutaline	0.7 ± 0.1	0.7	0.4	improved oral absorption in comparison with terbutaline	112 ± 5	2100	effect on force of contraction x terbutaline ([6]; Table 10): 0.03 ± 0.01
CCC(=O)Oc1cc(OC(=O)CC)cc(C(O)CNC(C)(C)C)c1 (stereo not drawn) [KWD2057]	0.06	much less direct heart effect	0.4	weaker bronchospasmolytic effect in vitro than terbutaline	0.5	0.2	1	improved oral absorption in comparison with terbutaline	70 ± 4	2200	
Br.CC(C)C(=O)Oc1cc(OC(=O)C(C)C)cc(C(O)CNC(C)(C)C)c1 (stereo not drawn) [KWD2058, 1-(3',5'-diisobutyryloxyphenyl)-2-(t-butylamino)-ethanol hydrobromide]		much less direct heart effect	0.6 ± 0.2	weaker bronchospasmolytic effect in vitro than terbutaline	1.0 ± 0.1			improved oral absorption in comparison with terbutaline	52 ± 4	2150	effect on heart rate ([6]; doses up to 100 μg): no effect; effect on arterial mean pressure, pulse pressure, heart rate and peripheral vascular resistance relative to terbutaline ([10]; cat, summary): about half; arterial mean pressure, x terbutaline ([10]; i.v., anesthetized cats): 0.4+0.1 × terbutaline; heart rate, x terbutaline ([10]; i.v., anesthetized cats): 0.4±0.1 × terbutaline; pulse rate, x terbutaline ([10]; i.v., anesthetized cats, pulse pressure in text): 0.4±0.1 × terbutaline; change in peripheral resistance, x terbutaline ([10]; intra-arterial, right hind limb, constant flow): 0.4±0.1 × terbutaline; ED50 ([8]; 0.5 h, oral, 30 minutes before histamine): 0.15 mg/kg; ED50 ([8]; ip, 0.25 h, i.p., 15 minutes before histamine): 1 mg/kg; protecting effect relative to terbutaline ([8]; oral): 2.5 times; oral absorption in comparison with terbutaline ([8]; seen in oral ED50, Table 9): particularly good oral absorption in comparison with terbutaline
NC[C@H](O)c1ccc(O)c(O)c1 [norepinephrine, reference compound]											effect on auricle (tension) [11]: strong effect on the heart muscle; effect on trachea (relaxation) [12]: without affecting the bronchial muscles
